Reference: PubChem BioAssay AID1259407 (Chemical Carcinogenesis Research Information System (CCRIS), 2018)
Activity calls are given as the source filed them. No rule for the calls is given here.

System: CCRIS mutagenicity, Ames/micronucleus/aberration tests
Assay: CCRIS mutagenicity studies
[1] = Test System: AMES SALMONELLA TYPHIMURIUM, Strain/Indicator: TA100, Metabolic Activation: NONE, Method: STANDARD PLATE
[2] = Test System: AMES SALMONELLA TYPHIMURIUM, Strain/Indicator: TA1535, Metabolic Activation: NONE, Method: STANDARD PLATE
[3] = Test System: AMES SALMONELLA TYPHIMURIUM, Strain/Indicator: TA98, Metabolic Activation: NONE, Method: PREINCUBATION
[4] = Test System: AMES SALMONELLA TYPHIMURIUM, Strain/Indicator: TA100, Metabolic Activation: NONE, Method: PREINCUBATION

Measured: mutagenic call

C=C(C)C(=O)OCCCCCCOC(=O)C(=C)C
inactive: Test System: AMES SALMONELLA TYPHIMURIUM, Strain/Indicator: TA98, Metabolic Activation: NONE, Method: STANDARD PLATE inactive; negative | Test System: AMES SALMONELLA TYPHIMURIUM, Strain/Indicator: TA98, Metabolic Activation: RAT, LIVER, S-9, AROCLOR 1254, Method: STANDARD PLATE inactive; negative | Test System: AMES SALMONELLA TYPHIMURIUM, Strain/Indicator: TA98, Metabolic Activation: RAT, LIVER, S-9, SODIUM PHENOBARBITAL, Method: STANDARD PLATE inactive; negative | [1] inactive; negative | Test System: AMES SALMONELLA TYPHIMURIUM, Strain/Indicator: TA100, Metabolic Activation: RAT, LIVER, S-9, AROCLOR 1254, Method: STANDARD PLATE inactive; negative | Test System: AMES SALMONELLA TYPHIMURIUM, Strain/Indicator: TA100, Metabolic Activation: RAT, LIVER, S-9, SODIUM PHENOBARBITAL, Method: STANDARD PLATE inactive; negative | [2] inactive; negative | Test System: AMES SALMONELLA TYPHIMURIUM, Strain/Indicator: TA1535, Metabolic Activation: RAT, LIVER, S-9, AROCLOR 1254, Method: STANDARD PLATE inactive; negative | Test System: AMES SALMONELLA TYPHIMURIUM, Strain/Indicator: TA1535, Metabolic Activation: RAT, LIVER, S-9, SODIUM PHENOBARBITAL, Method: STANDARD PLATE inactive; negative | Test System: AMES SALMONELLA TYPHIMURIUM, Strain/Indicator: TA1537, Metabolic Activation: NONE, Method: STANDARD PLATE inactive; negative | Test System: AMES SALMONELLA TYPHIMURIUM, Strain/Indicator: TA1537, Metabolic Activation: RAT, LIVER, S-9, AROCLOR 1254, Method: STANDARD PLATE inactive; negative | Test System: AMES SALMONELLA TYPHIMURIUM, Strain/Indicator: TA1537, Metabolic Activation: RAT, LIVER, S-9, SODIUM PHENOBARBITAL, Method: STANDARD PLATE inactive; negative | Test System: AMES SALMONELLA TYPHIMURIUM, Strain/Indicator: TA1538, Metabolic Activation: NONE, Method: STANDARD PLATE inactive; negative | Test System: AMES SALMONELLA TYPHIMURIUM, Strain/Indicator: TA1538, Metabolic Activation: RAT, LIVER, S-9, AROCLOR 1254, Method: STANDARD PLATE inactive; negative | Test System: AMES SALMONELLA TYPHIMURIUM, Strain/Indicator: TA1538, Metabolic Activation: RAT, LIVER, S-9, SODIUM PHENOBARBITAL, Method: STANDARD PLATE inactive; negative

CCn1cc(C(=O)O)c(=O)c2cc(F)c(N3CCN(C)CC3)cc21
inactive: Test System: CHINESE HAMSTER V-79, Strain/Indicator: V-79 (HPRT)/6-THIOGUANINE, Metabolic Activation: NONE inactive; negative
active: Test System: AMES SALMONELLA TYPHIMURIUM, Strain/Indicator: TA102, Metabolic Activation: NONE, Method: STANDARD PLATE active; positive

CNC(=O)ON(C(C)=O)C(=O)NC
inactive: [1] inactive; negative
active: Test System: AMES SALMONELLA TYPHIMURIUM, Strain/Indicator: TA98, Metabolic Activation: RAT, LIVER, S-9, Method: STANDARD PLATE active; positive

c1ccc(CN2CCN=N2)cc1
active: [2] active; positive

Nc1cc(S(=O)(=O)O)ccc1O
inactive: Test System: AMES SALMONELLA TYPHIMURIUM, Strain/Indicator: TA97, Metabolic Activation: HAMSTER, LIVER, S-9, AROCLOR 1254 (10 OR 30%), Method: PREINCUBATION inactive; negative | Test System: AMES SALMONELLA TYPHIMURIUM, Strain/Indicator: TA97, Metabolic Activation: NONE, Method: PREINCUBATION inactive; negative | Test System: AMES SALMONELLA TYPHIMURIUM, Strain/Indicator: TA97, Metabolic Activation: RAT, LIVER, S-9, AROCLOR 1254 (10 OR 30%), Method: PREINCUBATION inactive; negative | Test System: AMES SALMONELLA TYPHIMURIUM, Strain/Indicator: TA98, Metabolic Activation: HAMSTER, LIVER, S-9, AROCLOR 1254 (10 OR 30%), Method: PREINCUBATION inactive; negative | [3] inactive; negative | Test System: AMES SALMONELLA TYPHIMURIUM, Strain/Indicator: TA98, Metabolic Activation: RAT, LIVER, S-9, AROCLOR 1254 (10 OR 30%), Method: PREINCUBATION inactive; negative | Test System: AMES SALMONELLA TYPHIMURIUM, Strain/Indicator: TA100, Metabolic Activation: HAMSTER, LIVER, S-9, AROCLOR 1254 (10 OR 30%), Method: PREINCUBATION inactive; negative | [4] inactive; negative | Test System: AMES SALMONELLA TYPHIMURIUM, Strain/Indicator: TA100, Metabolic Activation: RAT, LIVER, S-9 AROCLOR 1254 (10 OR 30%), Method: PREINCUBATION inactive; negative | Test System: AMES SALMONELLA TYPHIMURIUM, Strain/Indicator: TA1535, Metabolic Activation: HAMSTER, LIVER, S-9, AROCLOR 1254 (10 OR 30%), Method: PREINCUBATION inactive; negative | Test System: AMES SALMONELLA TYPHIMURIUM, Strain/Indicator: TA1535, Metabolic Activation: NONE, Method: PREINCUBATION inactive; negative | Test System: AMES SALMONELLA TYPHIMURIUM, Strain/Indicator: TA1535, Metabolic Activation: RAT, LIVER, S-9, AROCLOR 1254 (10 OR 30%), Method: PREINCUBATION inactive; negative

Cc1ccccc1N=Nc1c(O)ccc2ccccc12
active: Test System: AMES SALMONELLA TYPHIMURIUM, Strain/Indicator: TA100, Metabolic Activation: HAMSTER, LIVER, S-9, AROCLOR 1254 (30%), Method: PREINCUBATION active; positive
inactive: Test System: AMES SALMONELLA TYPHIMURIUM, Strain/Indicator: TA98, Metabolic Activation: HAMSTER, LIVER, S-9, AROCLOR 1254 (30%), Method: PREINCUBATION inactive; negative | [3] inactive; negative | Test System: AMES SALMONELLA TYPHIMURIUM, Strain/Indicator: TA98, Metabolic Activation: RAT, LIVER, S-9, AROCLOR 1254 (30%), Method: PREINCUBATION inactive; negative | [4] inactive; negative | Test System: AMES SALMONELLA TYPHIMURIUM, Strain/Indicator: TA100, Metabolic Activation: RAT, LIVER, S-9, AROCLOR 1254 (30%), Method: PREINCUBATION inactive; negative
